Key:
Type in all cases: in vivo
[1] = tested on: barnyardgrass (Echinochloa crus-galli); experiment: Test A preemergence; conditions: Echinochloa crus-galli, pre-emergence, 240 h, preemergence, read-out: Barnyardgrass plant response rating; for pest or weed control at 125 g/ha: 125 g ai/ha, 0 to 100 scale where 0 is no effect and 100 is complete control, approx. 10 d; for pest or weed control at 500 g/ha: 500 g ai/ha, visual injury rating about 10 d after treatment, 0 to 100 scale (0 no effect, 100 complete control)
Summary of the method: (§1)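 Visual injury scores from 0, no effect, to 100, complete control, were assigned versus untreated controls roughly 10 d after treatment in the greenhouse. Test chemicals, formulated with surfactant in a non-phytotoxic solvent, were applied to planted seeds as a preemergence soil spray or postemergence to one- to two-leaf plants 2 to 10 cm tall, in loam–sand soil.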

[2] = tested on: giant foxtail (Setaria faberii); experiment: Test A preemergence; conditions: Setaria faberi, pre-emergence, 240 h, preemergence, 0 to 100 scale where 0 is no effect and 100 is complete control, read-out: Foxtail, Giant plant response rating; for pest or weed control at 125 g/ha: 125 g ai/ha, approx. 10 d; for pest or weed control at 500 g/ha: 500 g ai/ha
Summary of the method: as §1

[3] = tested on: pigweed (Amaranthus retroflexus); experiment: Test A preemergence; conditions: Amaranthus retroflexus, pre-emergence, 240 h, preemergence, 0 to 100 scale where 0 is no effect and 100 is complete control, read-out: Pigweed plant response rating; for pest or weed control at 125 g/ha: 125 g ai/ha, approx. 10 d; for pest or weed control at 500 g/ha: 500 g ai/ha
[4] = tested on: ryegrass, Italian (Italian ryegrass, Lolium multiflorum); experiment: Test A preemergence; conditions: Lolium multiflorum, pre-emergence, 240 h, preemergence, 0 to 100 scale where 0 is no effect and 100 is complete control, read-out: Ryegrass, Italian plant response rating; for pest or weed control at 125 g/ha: 125 g ai/ha, approx. 10 d; for pest or weed control at 500 g/ha: 500 g ai/ha
Summary of the method: as §1

Kochia (Kochia scoparia) [5] = experiment: Test A preemergence; conditions: Bassia scoparia, pre-emergence, 240 h, preemergence, 0 to 100 scale where 0 is no effect and 100 is complete control, read-out: Kochia plant response rating; for pest or weed control at 125 g/ha: 125 g ai/ha, approx. 10 d; for pest or weed control at 500 g/ha: 500 g ai/ha
Summary of the method: as §1

[6] = tested on: ragweed (common ragweed, Ambrosia elatior); experiment: Test A preemergence; conditions: Ambrosia artemisiifolia, pre-emergence, 240 h, preemergence, 0 to 100 scale where 0 is no effect and 100 is complete control, read-out: Ragweed plant response rating; for pest or weed control at 125 g/ha: 125 g ai/ha, approx. 10 d; for pest or weed control at 500 g/ha: 500 g ai/ha
Summary of the method: as §1

[7] = tested on: barnyardgrass (Echinochloa crus-galli); experiment: Test B flooded paddy test; conditions: Echinochloa crus-galli, 250 g ai/ha, Flood; 0 to 100 scale where 0 is no effect and 100 is complete control; read-out: Barnyardgrass plant response rating
Summary of the method: (§2)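 Rating scale 0–100 (visual, vs untreated controls) after a 13–15 d greenhouse period; application to the flood layer, 3 cm above soil and maintained; plants at 2-leaf stage when treated.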

[8] = tested on: sedge, umbrella (small-flower umbrella sedge, Cyperus difformis); experiment: Test B flooded paddy test; conditions: Cyperus difformis, 250 g ai/ha, Flood; 0 to 100 scale where 0 is no effect and 100 is complete control; read-out: Sedge, Umbrella plant response rating
Summary of the method: as §2

[9] = tested on: ducksalad (Heteranthera limosa); experiment: Test B flooded paddy test; conditions: Heteranthera limosa, 250 g ai/ha, Flood; 0 to 100 scale where 0 is no effect and 100 is complete control; read-out: Ducksalad plant response rating
Summary of the method: as §2

rice (Oryra sativa) = experiment: Test B flooded paddy test; conditions: Oryza sativa, 250 g ai/ha, Flood; 0 to 100 scale where 0 is no effect and 100 is complete control; read-out: Rice plant response rating
Summary of the method: as §2

[10] = tested on: barnyardgrass (Echinochloa crus-galli); experiment: Test A postemergence; conditions: Echinochloa crus-galli, post-emergence, 240 h, postemergence, read-out: Barnyardgrass plant response rating; for pest or weed control at 125 g/ha: 125 g ai/ha, visual injury on 0 to 100 scale (0 no effect, 100 complete control), approx. 10 d; for pest or weed control at 500 g/ha: 500 g ai/ha, 0 to 100 scale, 0 is no effect, 100 is complete control
Summary of the method: as §1

corn (Zea mays) = experiment: Test A postemergence; conditions: Zea mays, post-emergence, 240 h, postemergence, read-out: Corn plant response rating; for plant injury at 125 g/ha: 125 g ai/ha, visual injury on 0 to 100 scale (0 no effect, 100 complete control), approx. 10 d; for plant injury at 500 g/ha: 500 g ai/ha, 0 to 100 scale, 0 is no effect, 100 is complete control
Summary of the method: as §1

[11] = tested on: Galium (catchweed bedstraw, Galium aparine); experiment: Test A postemergence; conditions: Galium, post-emergence, 240 h, postemergence, read-out: Galium plant response rating; for pest or weed control at 125 g/ha: 125 g ai/ha, visual injury on 0 to 100 scale (0 no effect, 100 complete control), approx. 10 d; for pest or weed control at 500 g/ha: 500 g ai/ha, 0 to 100 scale, 0 is no effect, 100 is complete control
Summary of the method: as §1

[12] = tested on: pigweed (Amaranthus retroflexus); experiment: Test A postemergence; conditions: Amaranthus retroflexus, post-emergence, 240 h, postemergence, read-out: Pigweed plant response rating; for pest or weed control at 125 g/ha: 125 g ai/ha, visual injury on 0 to 100 scale (0 no effect, 100 complete control), approx. 10 d; for pest or weed control at 500 g/ha: 500 g ai/ha, 0 to 100 scale, 0 is no effect, 100 is complete control
Summary of the method: as §1

Kochia (Kochia scoparia) [13] = experiment: Test A postemergence; conditions: Bassia scoparia, post-emergence, 240 h, postemergence, read-out: Kochia plant response rating; for pest or weed control at 125 g/ha: 125 g ai/ha, visual injury on 0 to 100 scale (0 no effect, 100 complete control), approx. 10 d; for pest or weed control at 500 g/ha: 500 g ai/ha, 0 to 100 scale, 0 is no effect, 100 is complete control
Summary of the method: as §1

Row | SMILES | pest or weed control at 125 g/ha [1] | pest or weed control at 500 g/ha [1] | pest or weed control at 125 g/ha [2] | pest or weed control at 500 g/ha [2] | pest or weed control at 125 g/ha [3] | pest or weed control at 500 g/ha [3] | pest or weed control at 125 g/ha [4] | pest or weed control at 500 g/ha [4] | pest or weed control at 125 g/ha (Kochia (Kochia scoparia) [5]) | pest or weed control at 500 g/ha (Kochia (Kochia scoparia) [5]) | pest or weed control at 125 g/ha [6] | pest or weed control at 500 g/ha [6] | pest or weed control at 250 g/ha [7] | pest or weed control at 250 g/ha [8] | pest or weed control at 250 g/ha [9] | pest or weed control at 250 g/ha (rice (Oryra sativa)) | pest or weed control at 125 g/ha [10] | pest or weed control at 500 g/ha [10] | plant injury at 125 g/ha (corn (Zea mays)) | plant injury at 500 g/ha (corn (Zea mays)) | other results
1 | O=C1NC[C@H](c2cc(C(F)F)cs2)[C@H]1C(=O)Nc1ccccc1F [Compound 1116] | 90% | 90% | 20% | 90% | 0% | 20% | 0% | 20% | 0% | 30% | 0% | 20% | 50% | 75% | 100% | 20% | 30% | 60% | 0% | 0% | pest or weed control at 125 g/ha [11]: 0%; pest or weed control at 500 g/ha [11]: 40%; pest or weed control at 125 g/ha [12]: 0%; pest or weed control at 500 g/ha [12]: 0%; pest or weed control at 125 g/ha (Kochia (Kochia scoparia) [13]): 0%; pest or weed control at 500 g/ha (Kochia (Kochia scoparia) [13]): 30%
2 | O=C1NC[C@H](c2cc(C(F)F)cs2)[C@H]1C(=O)Nc1cccc(F)c1F [Compound 1117] | 90% | 90% | 50% | 90% | 0% | 0% | 0% | 60% | 40% | 70% | 20% | 70% | 60% | 0% | 100% | 20% | 80% | 90% | 20% | 40% | pest or weed control at 125 g/ha [11]: 40%; pest or weed control at 500 g/ha [11]: 40%; pest or weed control at 125 g/ha [12]: 0%; pest or weed control at 500 g/ha [12]: 0%; pest or weed control at 125 g/ha (Kochia (Kochia scoparia) [13]): 20%; pest or weed control at 500 g/ha (Kochia (Kochia scoparia) [13]): 40%

Reference: patent US12077503B2, “Substituted cyclic amides and their use as herbicides” (FMC CORPORATION, priority 2015, dated 2024)
